Source: patent US20070093520A1, “Method of treatment of diarrhea-predominant irritable bowel syndrome in a subject” (priority 2005, published 2007)

System: diarrhea-predominant IBS subjects
Experiment: 3007 Study: open-label 52-week safety study, adverse events and withdrawals
Settings: Overall

Cc1nccn1C[C@H]1CCc2c(c3cccc4c3n2CCC4)C1=O [cilansetron, (R)-(−)-4,5,6,8,9,10-hexahydro-10-[(2-methyl-1H-imidazol-1-yl)methyl]-11H-pyrido-[3,2,1-jk]-carbazol-11-one]
TEAE: Faeces Abnormal: 9 (2%) n (%)
TEAE: Faeces Hard: 6 (1%) n (%)
TEAE: Fall: 4 (<1%) n (%)
TEAE: Fatigue: 13 (2%) n (%)
TEAE: Fatigue Aggravated: 1 (<1%) n (%)
TEAE: Febrile Disorders: 3 (<1%) n (%)
TEAE: Fibroma NOS: 1 (<1%) n (%)
TEAE: Fibromyalgia: 1 (<1%) n (%)
TEAE: Flatulence: 26 (5%) n (%)
TEAE: Flatulence, Bloating and Distension: 36 (7%) n (%)
TEAE: Fluid Intake Increased: 1 (<1%) n (%)
TEAE: Fluid in Middle Ear: 1 (<1%) n (%)
TEAE: Flushing: 1 (<1%) n (%)
TEAE: Food Allergy: 1 (<1%) n (%)
TEAE: Food Poisoning NOS: 3 (<1%) n (%)
TEAE: Foot Fracture: 2 (<1%) n (%)
TEAE: Fractures and Dislocations NEC: 1 (<1%) n (%)
TEAE: Frequent Bowel Movements: 1 (<1%) n (%)
TEAE: Fungal Infection NOS: 3 (<1%) n (%)
TEAE: Fungal Infections NEC: 8 (1%) n (%)
TEAE: Gamma-Glutamyltransferase Increased: 8 (1%) n (%)
TEAE: Gastric Irritation: 1 (<1%) n (%)
TEAE: Gastritis (Excl Infective): 3 (<1%) n (%)
TEAE: Gastritis NOS: 3 (<1%) n (%)
TEAE: Gastroenteritis NOS: 9 (2%) n (%)
TEAE: Gastroenteritis Viral NOS: 11 (2%) n (%)
TEAE: Gastrointestinal Atonic and Hypomotility Disorders NEC: 133 (25%) n (%)
TEAE: Gastrointestinal Disorders: 268 (50%) n (%)
TEAE: Gastrointestinal Disorders NEC: 3 (<1%) n (%)
TEAE: Gastrointestinal Dyskinetic Disorders: 4 (<1%) n (%)
TEAE: Gastrointestinal Histopathology Procedures: 37 (7%) n (%)
TEAE: Gastrointestinal Infections - Pathogen Class Unspecified: 9 (2%) n (%)
TEAE: Gastrointestinal Inflammatory Disorders NEC: 2 (<1%) n (%)
TEAE: Gastrointestinal Motility Disorder NOS: 3 (<1%) n (%)
TEAE: Gastrointestinal Mucosal Dystrophies and Secretion Disorders: 1 (<1%) n (%)
TEAE: Gastrointestinal Signs and Symptoms NEC: 4 (<1%) n (%)
TEAE: Gastrointestinal Spastic and Hypermotility Disorders: 5 (<1%) n (%)
TEAE: Gastrointestinal and Abdominal Pains (Excl Oral and Throat): 69 (13%) n (%)
TEAE: General Disorders and Administration Site Conditions: 42 (8%) n (%)
TEAE: General Signs and Symptoms NEC: 9 (2%) n (%)
TEAE: Gilbert's Syndrome: 1 (<1%) n (%)
TEAE: Gingival Abscess: 2 (<1%) n (%)
TEAE: Gingival Atrophy: 1 (<1%) n (%)
TEAE: Gingival Disorders NEC: 3 (<1%) n (%)
TEAE: Gingival Pain: 1 (<1%) n (%)
TEAE: Gingival Pains: 1 (<1%) n (%)
TEAE: Gingivitis: 2 (<1%) n (%)
TEAE: Gingivitis Infection NOS: 1 (<1%) n (%)
TEAE: Glucose Tolerance Impaired: 1 (<1%) n (%)
TEAE: Glucose Urine Present: 1 (<1%) n (%)
TEAE: Glycosuria: 1 (<1%) n (%)
TEAE: Goitre: 1 (<1%) n (%)
TEAE: Gout: 2 (<1%) n (%)
TEAE: Groin Pain: 1 (<1%) n (%)
TEAE: Haematocrit Decreased: 1 (<1%) n (%)
TEAE: Haematoma NOS: 1 (<1%) n (%)
TEAE: Haematuria: 4 (<1%) n (%)
TEAE: Haemoglobin Decreased: 1 (<1%) n (%)
TEAE: Haemorrhoidal Haemorrhage: 4 (<1%) n (%)
TEAE: Haemorrhoids: 11 (2%) n (%)
TEAE: Haemorrhoids Aggravated: 1 (<1%) n (%)
TEAE: Haemorrhoids and Gastrointestinal Varices (Excl Oesophageal): 15 (3%) n (%)
TEAE: Halitosis: 1 (<1%) n (%)
TEAE: Hallucination NOS: 1 (<1%) n (%)
TEAE: Hallucination, Auditory: 1 (<1%) n (%)
TEAE: Hand Fracture: 1 (<1%) n (%)
TEAE: Headache NOS: 31 (6%) n (%)
TEAE: Headache NOS Aggravated: 5 (<1%) n (%)
TEAE: Headaches NEC: 39 (7%) n (%)
TEAE: Hearing Losses: 1 (<1%) n (%)
TEAE: Heart Rate Increased: 2 (<1%) n (%)
TEAE: Heart Rate and Pulse Investigations: 2 (<1%) n (%)
TEAE: Heat Exhaustion: 1 (<1%) n (%)
TEAE: Heat Injuries (Excl Thermal Burns): 1 (<1%) n (%)
TEAE: Helicobacter Pylori Antibody Positive: 1 (<1%) n (%)
TEAE: Hepatitis NOS: 1 (<1%) n (%)
TEAE: Hepatobiliary Disorders: 5 (<1%) n (%)
TEAE: Hepatobiliary Signs and Symptoms: 1 (<1%) n (%)
TEAE: Hepatocellular Damage and Hepatitis NEC: 1 (<1%) n (%)
TEAE: Hepatosplenomegaly NOS: 1 (<1%) n (%)
TEAE: Hernia NOS: 1 (<1%) n (%)
TEAE: Hernia Repair NOS: 1 (<1%) n (%)
TEAE: Hernia Repairs: 1 (<1%) n (%)
TEAE: Hernias NEC: 1 (<1%) n (%)
TEAE: Herpes Simplex: 3 (<1%) n (%)
TEAE: Herpes Simplex Aggravated: 1 (<1%) n (%)
TEAE: Herpes Viral Infections: 5 (<1%) n (%)
TEAE: Herpes Zoster: 1 (<1%) n (%)
TEAE: Hiatus Hernia: 2 (<1%) n (%)
TEAE: Hot Flushes NOS: 1 (<1%) n (%)
TEAE: Hypercholesterolaemia: 6 (1%) n (%)
TEAE: Hyperglycaemia NOS: 3 (<1%) n (%)
TEAE: Hyperglycaemic Conditions NEC: 4 (<1%) n (%)
TEAE: Hyperkeratoses: 1 (<1%) n (%)
TEAE: Hyperkeratosis: 1 (<1%) n (%)
TEAE: Hyperlipidaemia NOS: 1 (<1%) n (%)
TEAE: Hyperlipidaemias NEC: 1 (<1%) n (%)
TEAE: Hyperreflexia: 1 (<1%) n (%)
TEAE: Hypersensitivity NOS: 2 (<1%) n (%)
TEAE: Hypertension Aggravated: 2 (<1%) n (%)
TEAE: Hypertension NOS: 13 (2%) n (%)
TEAE: Hypoaesthesia: 2 (<1%) n (%)
TEAE: Hypotension NOS: 1 (<1%) n (%)
TEAE: Immune System Disorders: 9 (2%) n (%)
TEAE: Inborn Errors of Bilirubin Metabolism: 1 (<1%) n (%)
TEAE: Infected Varicose Vein: 1 (<1%) n (%)
TEAE: Infections NEC: 4 (<1%) n (%)
TEAE: Infections and Infestations: 173 (32%) n (%)
TEAE: Influenza: 18 (3%) n (%)
TEAE: Influenza Like Illness: 4 (1%) n (%)
TEAE: Influenza Viral Infections: 18 (3%) n (%)
TEAE: Ingrowing Nail: 1 (<1%) n (%)
TEAE: Inguinal Hernia NOS: 1 (<1%) n (%)
TEAE: Inguinal Hernias: 1 (<1%) n (%)
TEAE: Injury, Poisoning and Procedural Complications: 47 (9%) n (%)
TEAE: Inner Ear Disorders NEC: 1 (<1%) n (%)
TEAE: Inner Ear Infections and Inflammations: 3 (<1%) n (%)
TEAE: Inner Ear Signs and Symptoms: 3 (<1%) n (%)
TEAE: Insomnia: 5 (<1%) n (%)
TEAE: Insomnia Exacerbated: 1 (<1%) n (%)
TEAE: Intermenstrual Bleeding*: 1 (<1%) n (%)
TEAE: Intervertebral Disc Degeneration NOS: 2 (<1%) n (%)
TEAE: Intervertebral Disc Disorder NOS: 1 (<1%) n (%)
TEAE: Intervertebral Disc Disorders NEC: 5 (<1%) n (%)
TEAE: Intervertebral Disc Herniation: 4 (<1%) n (%)
TEAE: Intestinal Haemorrhages: 8 (1%) n (%)
TEAE: Intraocular Pressure Increased: 2 (<1%) n (%)
TEAE: Investigations: 126 (24%) n (%)
TEAE: Irritability: 1 (<1%) n (%)
TEAE: Irritable Bowel Syndrome: 1 (<1%) n (%)
TEAE: Irritable Bowel Syndrome Aggravated: 3 (<1%) n (%)
TEAE: Ischaemic Coronary Artery Disorders: 4 (<1%) n (%)
TEAE: Joint Related Disorders NEC: 2 (<1%) n (%)
TEAE: Joint Related Signs and Symptoms: 14 (3%) n (%)
TEAE: Joint Sprain: 4 (<1%) n (%)
TEAE: Joint Swelling: 1 (<1%) n (%)
TEAE: Kidney Infection NOS: 1 (<1%) n (%)
TEAE: Labyrinthitis NOS: 3 (<1%) n (%)
TEAE: Laceration: 6 (1%) n (%)
TEAE: Lacrimal Disorders: 2 (<1%) n (%)
TEAE: Lactose Intolerance: 1 (<1%) n (%)
TEAE: Laryngeal and Adjacent Sites Disorders NEC (Excl Infections and Neoplasms): 3 (<1%) n (%)
TEAE: Laryngitis NOS: 3 (<1%) n (%)
TEAE: Leiomyoma NOS: 1 (<1%) n (%)
TEAE: Lethargy: 1 (<1%) n (%)
TEAE: Leukopenia NOS: 2 (<1%) n (%)
TEAE: Leukopenias NEC: 2 (<1%) n (%)
TEAE: Libido Decreased: 1 (<1%) n (%)
TEAE: Lid, Lash and Lacrimal Structural Disorders (Excl Congenital): 1 (<1%) n (%)
TEAE: Ligament Sprain: 2 (<1%) n (%)
TEAE: Limb Discomfort NOS: 1 (<1%) n (%)
TEAE: Limb Injuries NEC (Incl Traumatic Amputation): 4 (<1%) n (%)
TEAE: Limb Injury NOS: 2 (<1%) n (%)
TEAE: Lip and Palate Disorders NEC: 1 (<1%) n (%)
TEAE: Lipid Metabolism Disorder NOS: 1 (<1%) n (%)
TEAE: Lipid Metabolism and Deposit Disorders NEC: 1 (<1%) n (%)
TEAE: Lipoma NOS: 2 (<1%) n (%)
TEAE: Liver Function Analyses: 23 (4%) n (%)
TEAE: Liver Function Tests NOS Abnormal: 2 (<1%) n (%)
TEAE: Localised Infection: 2 (<1%) n (%)
TEAE: Localised Osteoarthritis: 1 (<1%) n (%)
TEAE: Loss of Consciousness: 1 (<1%) n (%)
TEAE: Lower Limb Fracture NOS: 1 (<1%) n (%)
TEAE: Lower Limb Fractures and Dislocations: 3 (<1%) n (%)
TEAE: Lower Respiratory Tract Signs and Symptoms: 2 (<1%) n (%)
TEAE: Lower Respiratory Tract and Lung Infections: 28 (5%) n (%)
TEAE: Lymphadenopathy: 2 (<1%) n (%)
TEAE: Lymphangitis and Lymphatic Disorders NEC: 2 (<1%) n (%)
TEAE: Lymphocyte Count Increased: 2 (<1%) n (%)
